Columns and labels:
washed platelets [1] = experiment: Platelet aggregation (thrombin-induced, Born's method); type: cell-based; conditions: Homo sapiens, 0.1 U/mL thrombin, mean ± SD, read-out: IC50 Aggregation inhibition
Method: (§1) The antioxidant properties of acylhydrazones 10–13 and pyrazolyl amides 14–22 were tested by evaluating their inhibition of platelet aggregation and ROS production (Figure 3, Table S1). In fact, human platelets could represent a fast and low-cost biological model to screen compounds as anticancer, anti-inflammatory, and antiaggregating agents. Moreover, ROS production inhibition, related to human platelet aggregation, could provide a good indication of the anti-inflammatory and antioxidant properties of the newly synthesized compounds [47, 50, 51, 52]. N-acetylcysteine (NAC) and acetyl salicylic acid (ASA) were used as reference drugs for antioxidant and antiaggregant activities, respectively.
(§2) Freshly drawn venous blood from healthy volunteers from “Centro Trasfusionale” (IRCCS Policlinico San Martino, Genoa, Italy) was collected into a 130 mM aqueous trisodium citrate anticoagulant solution (9:1). The donors claimed to not have taken drugs known to interfere with platelet function during the two weeks prior to blood collection and gave their informed consent. Whole blood was centrifuged at 100× g for 20 min to afford platelet-rich plasma that was then spun at 1100× g for 15 min. The obtained pellet was washed once with a pH 5.2 ACD solution (75 mM trisodium citrate, 42 mM citric acid, and 136 mM glucose), centrifuged at 1100× g for 15 min, and then re-suspended in pH 7.4 Hepes buffer (145 mM NaCl, 5 mM KCl, 1 mM MgSO4, 10 mM glucose, and 10 mM HEPES).
Thrombin was purchased from Sigma-Aldrich/Merck Millipore. A DMSO solution of compounds 10–22 was diluted in saline immediately before each experiment and added to the washed platelets (3.0 × 10^8/mL) at 37 °C. After 3 min, 0.1 U/mL thrombin was added, and platelet aggregation was quantified according to Born’s method using a Bio-Data Aggregometer (Bio-Data Corporation, Horsham, PA, USA). The IC50 values were calculated as detailed above.

A549 = experiment: MTT assay, antiproliferative activity; type: cell-based; conditions: 48h; for activity at 10 µM: Homo sapiens, read-out: Mean Growth Percentage
Method: (§3) Pyrazole acylhydrazones 10–13 and amides 14–22 were tested by MTT assay to evaluate their antiproliferative and cytotoxicity properties against a panel of eight tumor cell lines and normal fibroblasts.
(§4) All reagents were purchased from EuroClone, Milan, Italy). The following cell lines were used for MTT assays: SKOV-3 (ovarian adenocarcinoma, ATCC, Manassas, VA, USA); MCF-7 (breast adenocarcinoma, Biologic Bank and Cell Factory, IRCCS Policlinico San Martino, Genoa, Italy); Hep-G2 (hepatocellular carcinoma, ATCC, Manassas, VA, USA); SK-MEL28 (skin melanoma, Biologic Bank and Cell Factory, IRCCS Policlinico San Martino, Genoa, Italy), GM-6114 (embryonic human fibroblast, ATCC, Manassas, VA, USA); MDA-MB231 (breast adenocarcinoma, Biologic Bank and Cell Factory, IRCCS Policlinico San Martino, Genoa, Italy); HeLa (cervical adenocarcinoma, Biologic Bank and Cell Factory, IRCCS Policlinico San Martino, Genoa, Italy); SK-BR3 (breast andenocarcinoma, Biologic Bank and Cell Factory, IRCCS Policlinico San Martino, Genoa, Italy); A549 (lung carcinoma, Biologic Bank and Cell Factory, IRCCS Policlinico San Martino, Genoa, Italy); HUVEC (Human Umbilical Vein Endothelial Cells, ATCC, Manassas, VA, USA). All cell lines were grown in their medium with 10% FBS, 2 mM Glutamine, and 1% penstrep and incubated at 37 °C in 5% CO2 in a humidified environment. The cell lines were plated in 96-well plates at an adequate number to reach 80–90% confluence at the end of the assay. 16 h after cell plating, a 10 mM DMSO stock solution of the compounds was diluted in growth medium and added at a final working concentration of 10 μM. After 48h of incubation, a 2 mg/mL PBS solution of MTT (3-(4,5-dimethyl-2-thiazolyl)-2,5-diphenyl-2H-tetrazolium bromide) was added (30 μL/well). After 4h, the supernatant was removed, and the Formazan precipitates were dissolved in DMSO (100 μL/well). The 96-well plates were incubated for 20 min, and absorbance was measured at 570 nm using a plate reader. The results are expressed as a percentage ratio over control samples (100%) in which the cells were incubated with the same amount of DMSO but without compounds. Each value is the mean of three independent experiments run in six replicates.

Hep-G2 = experiment: MTT assay, antiproliferative activity; type: cell-based; conditions: for Mean growth percentage at 10 µM: Homo sapiens, HepG2, 48h
Method: as §3, §4

SK-BR3 = experiment: MTT assay, antiproliferative activity; type: cell-based; conditions: for Mean growth percentage at 10 µM: Homo sapiens, SK-BR-3, 48h
Method: as §3, §4

MDA-MB231 = experiment: MTT assay, antiproliferative activity; type: cell-based; conditions: for Mean growth percentage at 10 µM: Homo sapiens, MDA-MB-231, 48h
Method: as §3, §4

MCF7 = experiment: MTT assay, antiproliferative activity; type: cell-based; conditions: 10 µM, 48h; for mean growth percentage (cell growth remaining vs control) at 10 µM: Homo sapiens
Method: as §3, §4
(§5) Each IC50 value is the mean of three independent experiments run in duplicate.

SKMEL28 = experiment: MTT assay, antiproliferative activity; type: cell-based; conditions: 48h; for Mean growth percentage at 10 µM: Homo sapiens, SK-MEL-28, 10 µM
Method: as §3, §4, §5

SKOV3 = experiment: MTT assay, antiproliferative activity; type: cell-based; conditions: 48h; for Mean growth percentage at 10 µM: Homo sapiens, SK-OV-3, 10 µM
Method: as §3, §4, §5

HeLa = experiment: MTT assay, antiproliferative activity; type: cell-based; conditions: 10 µM, 48h; for activity at 10 µM: Homo sapiens, read-out: Mean Growth Percentage
Method: as §3, §4, §5

washed platelets [2] = experiment: ROS assay in platelets (DCFH-DA, thrombin-stimulated); type: cell-based, human; conditions: 0.1 U/mL thrombin, mean ± SD, read-out: IC50 ROS production inhibition
Method: as §1, §2
2′,7′-Dichlorofluorescein diacetate (DCFH-DA) and thrombin were purchased from Sigma-Aldrich/Merck Millipore. DMSO solutions of 10–22 were diluted in saline immediately before each experiment. ROS production was quantified by DCFH-DA, a ROS-sensitive probe that yields, upon oxidation, the fluorescent adduct DCF that is trapped inside the cells. Briefly, washed platelets (1.0 × 10^8/mL), pre-incubated with saline solutions of 10–22 for 15 min at 37 °C, were stimulated by 0.1 U/mL thrombin. Incubation was stopped by cooling samples in an ice bath, and then samples were immediately analyzed in a Merck Millipore Bioscience Guava easyCyte flow cytometer (Merk Millipore, Burlington, MA, USA). The reported IC50 values represent the molar concentration of the compounds able to inhibit 50% of the maximal aggregation induced by the agonist and are calculated as the percentage inhibition of the maximal aggregation measured in the presence of the agent compared with the measure in a control sample containing saline, carried out under the same conditions. The IC50 values were extrapolated from nonlinear regression analysis of concentration–response curves (three points) using MS Excel software (Microsoft 365 suite). Each IC50 value is the mean of six independent experiments.

GM-6114 = experiment: MTT assay, cytotoxicity on normal fibroblasts; type: cell-based; conditions: human, 48 h, 10 µM

Row | Structure (SMILES) | IC50 (washed platelets [1]) [µM] | IC50 (washed platelets [2]) [µM] | IC50 (washed platelets [2]; Homo sapiens, Platelet) [µM] | Mean Growth Percentage (A549; 10 µM) [%] | Mean Growth Percentage (Hep-G2; 10 µM, 48h) [%] | Mean Growth Percentage (SK-BR3; 10 µM, 48h) [%] | Mean Growth Percentage (MDA-MB231; 10 µM, 48h) [%] | Mean Growth Percentage (MCF7) [%] | Mean Growth Percentage (SKMEL28; 10 µM) [%] | Mean Growth Percentage (SKOV3; 10 µM) [%] | Mean Growth Percentage (HeLa) [%] | activity at 10 µM (A549) [%] | Mean growth percentage at 10 µM (Hep-G2) [%] | Mean growth percentage at 10 µM (SK-BR3) [%] | Mean growth percentage at 10 µM (MDA-MB231) [%] | Mean Growth Percentage (GM-6114) [%] | mean growth percentage (cell growth remaining vs control) at 10 µM (MCF7) [%] | Mean growth percentage at 10 µM (SKMEL28) [%] | Mean growth percentage at 10 µM (SKOV3) [%] | activity at 10 µM (HeLa) [%]
1 | CC(=O)Oc1ccccc1C(=O)O [ASA, acetyl salicylic acid, reference compound] | 438 | – | – | – | – | – | – | – | – | – | – | – | – | – | – | – | – | – | – | –
2 | N.N.[Cl][Pt][Cl] [CisPt, cisplatin, reference compound] | – | – | – | 59.09 | 38.07 | 70.59 | 86.07 | 72.74 | 44.40 | 36.83 | 29.33 | – | – | – | – | – | – | – | – | –
3 | CC(=O)N[C@@H](CS)C(=O)O [NAC, N-acetylcysteine, reference compound] | – | 872 | – | – | – | – | – | – | – | – | – | – | – | – | – | – | – | – | – | –
4 | COc1ccc(/C=N/NC(=O)c2c(N)nn(C)c2Nc2ccccc2)cc1Oc1ccccc1 [11c, (E)-3-amino-N′-(4-methoxy-3-phenoxybenzylidene)-1-methyl-5-(phenylamino)-1H-pyrazole-4-carbohydrazide] | 841 ± 43 | – | 148 ± 13 | – | – | – | – | – | – | – | – | 91.7 | 113 | 83.1 | 93.4 | 105.27 | 84.5 | 87.6 | 110 | 101
5 | COc1ccc(/C=N/NC(=O)c2c(Nc3ccccc3)nn(CC(O)c3ccccc3)c2N)cc1 (centres unmarked) [13a, (E)-5-amino-1-(2-hydroxy-2-phenylethyl)-N′-(4-methoxybenzylidene)-3-(phenylamino)-1H-pyrazole-4-carbohydrazide] | 883 ± 39 | – | 213 ± 17 | – | – | – | – | – | – | – | – | 94.5 | 85.9 | 91.8 | 96.4 | 99.43 | 81 | 81.8 | 93.8 | 83.7

Continued, in another order:

Row | IC50 (washed platelets [1]) [µM] | IC50 (washed platelets [2]) [µM] | IC50 (washed platelets [2]; Homo sapiens, Platelet) [µM] | Structure (SMILES) | Mean Growth Percentage (A549; 10 µM) [%] | Mean Growth Percentage (Hep-G2; 10 µM, 48h) [%] | Mean Growth Percentage (SK-BR3; 10 µM, 48h) [%] | Mean Growth Percentage (MDA-MB231; 10 µM, 48h) [%] | Mean Growth Percentage (MCF7) [%] | Mean Growth Percentage (SKMEL28; 10 µM) [%] | Mean Growth Percentage (SKOV3; 10 µM) [%] | Mean Growth Percentage (HeLa) [%] | activity at 10 µM (A549) [%] | Mean growth percentage at 10 µM (Hep-G2) [%] | Mean growth percentage at 10 µM (SK-BR3) [%] | Mean growth percentage at 10 µM (MDA-MB231) [%] | Mean Growth Percentage (GM-6114) [%] | mean growth percentage (cell growth remaining vs control) at 10 µM (MCF7) [%] | Mean growth percentage at 10 µM (SKMEL28) [%] | Mean growth percentage at 10 µM (SKOV3) [%] | activity at 10 µM (HeLa) [%]
6 | 331 ± 14 | – | 193 ± 16 | COc1ccc(/C=N/NC(=O)c2c(Nc3ccccc3)nn(C)c2N)cc1Oc1ccccc1 [12c, (E)-5-amino-N′-(4-methoxy-3-phenoxybenzylidene)-1-methyl-3-(phenylamino)-1H-pyrazole-4-carbohydrazide] | – | – | – | – | – | – | – | – | 98.5 | 111 | 82.1 | 100 | 104.08 | 88.3 | 94.6 | 104 | 85.2
7 | 129 ± 10 | – | 113 ± 7 | COc1ccc(/C=N/NC(=O)c2c(N)nn(C)c2Nc2ccccc2)cc1OC [11b, (E)-3-amino-N′-(3,4-dimethoxybenzylidene)-1-methyl-5-(phenylamino)-1H-pyrazole-4-carbohydrazide] | – | – | – | – | – | – | – | – | 94.8 | 116 | 86 | 85.7 | 104.95 | 94.8 | 93 | 100 | 99.5
8 | 265 ± 23 | – | 113 ± 7 | COc1ccc(/C=N/NC(=O)c2c(Nc3ccccc3)nn(C)c2N)cc1 [12a, (E)-5-amino-N′-(4-methoxybenzylidene)-1-methyl-3-(phenylamino)-1H-pyrazole-4-carbohydrazide] | – | – | – | – | – | – | – | – | 97.1 | 111 | 95 | 97.9 | 100.38 | 88.5 | 76.2 | 102 | 94.8

From publication PMC11083148, “Structure–Activity Relationship Studies on Highly Functionalized Pyrazole Hydrazones and Amides as Antiproliferative and Antioxidant Agents” (International Journal of Molecular Sciences, 2024)
